Experimental data published in patent publication US9089485B2, “Pharmaceutical compositions of entacapone, levodopa and carbidopa with improved bioavailability” (Wockhardt Ltd., priority 2008, dated 2015).

What was measured:
[1] = background description; cited from earlier work
[2] = co-micronized with sugar alcohols, from entacapone, levodopa, carbidopa formulation vs not co-micronized
[3] = background description; cited from earlier work; remark: listed apart in the source

## C[C@@](Cc1ccc(O)c(O)c1)(NN)C(=O)O [Carbidopa, (−)-L-(α-hydrazino-(α-methyl-β-(3,4-dihydroxybenzene)propanoic acid monohydrate]
[1]
  Solubility in water: slightly soluble

## CCN(CC)C(=O)/C(C#N)=C/c1cc(O)c(O)c([N+](=O)[O-])c1 [Entacapone, (E)-2-cyano-3-(3,4-dihydroxy-5-nitrophenyl)-N,N-diethyl-2-propenamide]
[2]
  Change in percent drug release of entacapone: significant increase
[3]
  Biopharmaceutics Classification system class: class IV

## N[C@@H](Cc1ccc(O)c(O)c1)C(=O)O [Levodopa, (−)-L-α-amino-β-(3,4-dihydroxybenzene) propanoic acid]
[1]
  Solubility in water: slightly soluble
